{
  "source": "patent US20070004623A1",
  "about": "“Use of hydroxylated amino acids for treating diabetes” (Innodia Inc., priority 2003, published 2007)",
  "type_in_all_cases": "cell-based",
  "key": {"INS-1 cells [1]": {"test_system": "INS-1 cells", "test": "glucose-dependent insulin secretion in INS-1 cells, ID 1101 with Glibenclamide", "conditions": "4.5 mM glucose, 1 hour", "method": "The optical isomer 2S,3R,4S of 4-hydroxyisoleucine (ID 1101) was tested in a blinded manner, alone and in combination with Glibenclamide, to determine the insulinotropic effect on INS-1 cells. Briefly, the cells were plated at a density of 2×10^5 in 12 well plates and incubated for 2 days in RPMI with 10% fetal calf serum and 11 mM glucose. The medium was removed on the third day post-plating and replaced with RPMI containing 3 mM glucose with 10% fetal calf serum. The cells were incubated for an additional 24 hours. On the fourth day post-plating, the medium was removed and replaced with Krebs-Ringers bicarbonate buffer containing 2 mM glucose. The cells were incubated for 30 minutes. The buffer was removed and replaced with Krebs-Ringers bicarbonate buffer with 4.5 mM glucose, containing ID 1101 at 0.1 mM, Glibenclamide alone at 10-10 mM or 10^−11 mM, or a combination of the 2 compounds. The cells were incubated for 1 hour. Basal insulin secretion was determined by incubating the cells in the presence of buffer with 2 mM glucose. The presence of glucose at 4.5 mM stimulated insulin secretion and served as the positive control."}, "INS-1 cells [2]": {"test_system": "INS-1 cells", "test": "glucose-dependent insulin secretion in INS-1 cells, ID 1101 with Exendin-4", "conditions": "4.5 mM glucose, 1 hour", "method": "The optical isomer 2S,3R,4S of 4-hydroxyisoleucine (ID 1101) was tested alone and in combination with Exendin-4, to determine the insulinotropic effect on INS-1 cells. Briefly, the cells were plated at a density of 2×10^5 in 12 well plates and incubated for 2 days in RPMI with 10% fetal calf serum and 11 mM glucose. The medium was removed on the third day post-plating and replaced with RPMI containing 3 mM glucose with 10% fetal calf serum. The cells were incubated for an additional 24 hours. On the fourth day post-plating, the medium was removed and replaced with Krebs-Ringers bicarbonate buffer containing 2 mM glucose. The cells were incubated for 30 ninutes. The buffer was removed and replaced with Krebs-Ringers bicarbonate buffer with 4.5 mM glucose, containing ID 1101 at 0.01 or 0.05 mM, Exendin-4 alone at 10^−9 mM or 10^−10 mM, or a combination of the 2 compounds. The cells were incubated for 1 hour. Basal insulin secretion was determined by incubating the cells in the presence of buffer with 2 mM glucose. The effect of glucose at 4.5 mM served as the control."}, "[3]": {"test_system": "differentiated 3T3-L1 adipocyte cells", "test": "uptake of 3H-deoxy-glucose by differentiated 3T3-L1 adipocyte cells", "conditions": "last 30 minutes of 5 hour starvation, control cells 2 pmol/mg/minute", "method": "Briefly, 3T3-L1 adipocyte cells (ATCC; Cl-173) were cultured in 12 well tissue culture plates for 3 days in order to reach confluence ([…] al., “Analysis of insulin-stimulated glucose uptake in differentiated 3T3-L1 adipocytes,” Diabetes Mellitus: Methods and Protocols, ([…]., 2003, pages 97-103). The culture medium was removed and replaced with differentiation-medium (Green et al., Cell 3:127-133, 1974; Madsen et al., Biochem. J. 375:539-549, 2003), and then the cells were incubated for an additional 9 days. The state of differentiation was confirmed by visual examination. Cell starvation was conducted for 5 hours by replacing the differentiation medium with medium lacking fetal calf serurn. During the starvation period, the cells were exposed ID 1101 (0.5 or 1.0 mM), for 0.5, 1, 2, 4, or 5 hours. The cells were exposed to insulin (0.0167 U/ml; Sigma; Cat. No. 15534) for the last 0.5 hour of the starvation period, either alone or in combination ID 1101. The cells were washed, and then fresh medium containing 16 μM ^3H-Deoxy-D-glucose (0.5 μCi/ml) and 10 μM 2-Deoxy-D-glucose was added and the cells were incubated for 10 minutes. Glucose uptake was stopped by washing the cells with ice cold PBS. The cells were lysed and specific activity in the lysate was determined relative to background uptake of ^3H-deoxy-glucose. […]"}},
  "data": [
    {"molecule": "COc1ccc(Cl)cc1C(=O)NCCc1ccc(S(=O)(=O)NC(=O)NC2CCCCC2)cc1", "note": "[Glibenclamide]", "values": [
      {"measurement": "insulin secretion", "setting": "INS-1 cells [1]; Glibenclamide 10^−10 mM", "result": "showed a stimulatory effect"},
      {"measurement": "insulin secretion", "setting": "INS-1 cells [1]; Glibenclamide 10^−11 mM", "result": "not"}
    ]},
    {"molecule": "C[C@@H]([C@H](C)O)[C@H](N)C(=O)O", "note": "[ID 1101, 4-hydroxyisoleucine]", "values": [
      {"measurement": "insulin secretion", "setting": "INS-1 cells [2]; ID 1101 0.01 or 0.05 mM", "result": "stimulated insulin secretion above background levels"},
      {"measurement": "insulin secretion", "setting": "INS-1 cells [1]; ID 1101 0.1 mM", "result": "stimulated insulin secretion above background levels"},
      {"measurement": "stimulation of glucose uptake above the background level", "setting": "[3]; ID 1101 0.5 or 1.0 mM as sole treatment", "result": "approximately 5 pmol/mg/minute"}
    ]},
    {"molecule": "Exendin-4 [reference compound]", "values": [
      {"measurement": "insulin secretion", "setting": "INS-1 cells [2]; Exendin-4 10^−9 and 10^−10 mM", "result": "did not show a stimulatory effect"}
    ]},
    {"molecule": "insulin", "values": [
      {"measurement": "stimulation of glucose uptake above the background level", "setting": "[3]; insulin 0.0167 U/ml as sole treatment", "result": "approximately 5 pmol/mg/minute"}
    ]}
  ]
}
